The values below come from PMC3076215 (Biochemistry, 2011).

The test deals with T1, Carbon monoxide dehydrogenase (CODH) (Afipia carboxidovorans, UniProt P19920).
T1 sequence (P19920 1-288): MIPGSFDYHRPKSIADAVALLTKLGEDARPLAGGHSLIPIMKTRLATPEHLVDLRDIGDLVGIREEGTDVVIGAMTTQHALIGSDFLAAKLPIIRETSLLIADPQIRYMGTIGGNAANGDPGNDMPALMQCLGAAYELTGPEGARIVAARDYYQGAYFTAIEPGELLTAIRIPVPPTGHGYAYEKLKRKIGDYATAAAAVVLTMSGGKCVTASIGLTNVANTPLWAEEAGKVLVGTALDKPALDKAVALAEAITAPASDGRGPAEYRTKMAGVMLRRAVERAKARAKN
T1 sequence (P19919 1-809 partner): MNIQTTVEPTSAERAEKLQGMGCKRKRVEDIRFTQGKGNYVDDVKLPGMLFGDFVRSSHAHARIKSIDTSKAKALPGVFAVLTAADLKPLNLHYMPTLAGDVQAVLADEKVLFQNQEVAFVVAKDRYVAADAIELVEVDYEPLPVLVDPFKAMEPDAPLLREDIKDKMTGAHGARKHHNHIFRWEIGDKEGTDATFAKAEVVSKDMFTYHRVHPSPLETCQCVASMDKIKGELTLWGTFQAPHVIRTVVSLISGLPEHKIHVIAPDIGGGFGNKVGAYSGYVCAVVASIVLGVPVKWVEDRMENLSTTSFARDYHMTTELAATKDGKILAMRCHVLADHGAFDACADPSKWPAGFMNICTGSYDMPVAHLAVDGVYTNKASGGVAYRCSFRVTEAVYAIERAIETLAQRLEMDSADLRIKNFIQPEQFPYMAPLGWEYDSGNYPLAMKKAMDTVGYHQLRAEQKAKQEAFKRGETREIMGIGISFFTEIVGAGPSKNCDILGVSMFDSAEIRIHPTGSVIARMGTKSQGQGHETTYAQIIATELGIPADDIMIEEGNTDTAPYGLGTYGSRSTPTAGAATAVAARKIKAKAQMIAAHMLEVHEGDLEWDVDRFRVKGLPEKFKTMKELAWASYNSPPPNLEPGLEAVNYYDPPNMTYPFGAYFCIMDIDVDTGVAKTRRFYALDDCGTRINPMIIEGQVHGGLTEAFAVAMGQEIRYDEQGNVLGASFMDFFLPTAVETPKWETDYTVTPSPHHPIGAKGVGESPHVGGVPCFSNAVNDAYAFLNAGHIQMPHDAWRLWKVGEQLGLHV
T1 sequence (P19921 1-166 partner): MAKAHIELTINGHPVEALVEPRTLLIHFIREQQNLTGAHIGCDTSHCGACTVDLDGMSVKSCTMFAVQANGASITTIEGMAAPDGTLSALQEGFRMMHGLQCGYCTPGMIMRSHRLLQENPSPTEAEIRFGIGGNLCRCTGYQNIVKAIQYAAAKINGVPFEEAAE
Briefly: UV-vis difference titration at […] nm. The test is classed as binding.

In general, Kd refers to the concentration at which binding is half-saturated. A low value points to a tighter complex. Compound `O=C1C=CC(=O)C=C1` [1,4-benzoquinone] displayed a Kd of 100 µM.
